Target: T1, HMG-CoA reductase (3-hydroxy-3-methyl-glutaryl coenzyme A reductase) (Rattus norvegicus, UniProt P51639)
T1 sequence (P51639 1-887): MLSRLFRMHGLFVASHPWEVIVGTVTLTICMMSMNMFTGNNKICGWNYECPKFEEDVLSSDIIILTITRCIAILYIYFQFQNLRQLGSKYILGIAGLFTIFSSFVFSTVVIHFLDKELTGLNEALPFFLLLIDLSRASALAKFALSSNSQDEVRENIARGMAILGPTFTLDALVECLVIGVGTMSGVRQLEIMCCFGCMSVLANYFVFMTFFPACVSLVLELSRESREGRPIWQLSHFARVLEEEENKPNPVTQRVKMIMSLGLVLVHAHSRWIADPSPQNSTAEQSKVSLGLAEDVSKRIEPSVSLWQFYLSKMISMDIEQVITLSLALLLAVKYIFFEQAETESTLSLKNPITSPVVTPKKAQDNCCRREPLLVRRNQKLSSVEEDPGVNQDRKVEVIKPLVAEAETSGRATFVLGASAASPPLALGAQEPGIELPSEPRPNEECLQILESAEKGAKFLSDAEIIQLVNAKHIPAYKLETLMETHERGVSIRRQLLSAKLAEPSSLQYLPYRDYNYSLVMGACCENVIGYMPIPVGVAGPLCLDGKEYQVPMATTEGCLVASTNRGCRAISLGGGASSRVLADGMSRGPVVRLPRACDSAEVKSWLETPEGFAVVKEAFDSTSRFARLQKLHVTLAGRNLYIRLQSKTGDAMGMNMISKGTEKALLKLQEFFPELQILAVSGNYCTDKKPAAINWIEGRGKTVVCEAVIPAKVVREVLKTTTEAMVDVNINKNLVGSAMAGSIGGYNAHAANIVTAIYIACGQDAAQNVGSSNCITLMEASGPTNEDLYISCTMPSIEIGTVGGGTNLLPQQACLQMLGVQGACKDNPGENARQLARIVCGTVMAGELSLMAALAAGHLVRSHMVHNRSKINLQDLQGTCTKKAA
Assay: determination of HMG-CoA reductase enzyme activity (rat liver enzyme preparation); relative inhibitory potency vs mevinolin
Conditions: relative inhibitory potency from IC50 values; IC50 of reference mevinolin set at 1; 20 min preincubation, 60 min at 37° C.
Description: Male Rico rats (body weight 300-400 g) were treated for 11 days with Altromin powdered feed, to which 40 g of colestyramine/kg of feed was added. After decapitation, the liver was removed from the animals and placed on ice. The livers were comminuted and homogenized 3 times in a Potter-Elvejem homogenizer in 3 volumes of 0.1 M saccharose, 0.05 M KCl, 0.04 M Kx Hy phosphate, 0.03 M ethylenediaminetetraacetic acid, 0.002 M dithiothreitol (SPE) buffer pH 7.2. The mixture was subsequently centrifuged for 15 minutes at 15,000* g and the sediment rejected. The supernatant was sedimented for 75 minutes at 100,000 g. The pellet is taken up in 1/4 volume of SPE buffer, homogenized once again and subsequently centrifuged again for 60 minutes at 100,000 g. The pellet is taken up using the 5-fold amount of its volume of SPE buffer, homogenized and frozen and stored at -78° C. (=enzyme solution).
For testing, the test compounds (or mevinolin as a reference substance) were dissolved in dimethylformamide with the addition of 5% by volume of 1 N NaOH and employed in the enzyme test in various concentrations using 10 μl. The test was started after preincubation of the compound with the enzyme at 37° C. for 20 minutes. The test batch was 0.380 ml and contained 4 μmol of glucose-6-phosphate, 1.1 mg of bovine serum albumin, 2.1 μmol of dithiothreitol, 0.35 μmol of NADP, 1 unit of glucose-6-phosphate dehyrogenase 35 μmol of KxHy phosphate PH 7.2, 20 μl of enzyme preparation and 56 nmol of 3x hydroxy-3-methyl-glutarylconenzyme A (glutaryl-3-^14 C) 100,000 dpm.
After incubation for 60 minutes at 37° C., the batch was centrifuged and 600 μl of the supernatant was applied to a 0.7×4 cm column filled with a 5-chloride 100-200 mesh (anion exchanger). It was washed with 2 ml of distilled water and 3 ml of aquasol were added to the runnings plus washing water and counted in the LKB scintillation counter. IC50 values were determined by intrapolation by plotting the percentage inhibition against the concentration of the compound in the test. To determine the relative inhibitory potency, the IC50 value of the reference substance mevinolin was set at 1 and compared with the simultaneously determined IC50 value of the test compound.

Row | Structure (SMILES) | Rel. Activity (Mevinolin = 1)
1 | COC(=O)C[C@H](O)C[C@H](O)/C=C/c1c(C(C)C)nc(C(C)C)c(-c2ccccc2)c1-c1ccc(F)cc1 (relative stereo) [Example 99] | 20
2 | COC(=O)C[C@H](O)C[C@H](O)/C=C/c1c(C(C)C)nc(C(C)C)c(COCc2ccccc2)c1-c1ccc(F)cc1 (relative stereo) [Example 17, Methyl erythro-(E)-7-[3-benzyloxymethyl-2,6-diisopropyl-4-(4-fluorophenyl)-pyrid-5-yl]-3,5-dihydroxy-hept-6-enoate] | 20
3 | COCc1c(C2CC2)nc(C(C)C)c(/C=C/[C@@H](O)C[C@@H](O)CC(=O)OC)c1-c1ccc(F)cc1 (relative stereo) [Example 85, Methyl erythro-(E)-7-[6-cyclopropyl-2-isopropyl-4-(4-fluorophenyl)-5-methoxymethyl-pyrid-3-yl]-3,5-dihydroxy-hept-6-enoate] | 20
4 | CCC(C)(C)C(=O)OCc1c(C(C)C)nc(C(C)C)c(/C=C/[C@@H](O)C[C@@H](O)CC(=O)OC)c1-c1ccc(F)cc1 (relative stereo) [Example 70, Methyl erythro-(E)-7-[2,6-diisopropyl-5-(2,2-dimethyl-butyryloxymethyl)-4-(4-fluorophenyl)-pyrid-3-yl]-3,5-dihydroxy-hept-6-enoate] | 30
5 | COC(=O)C[C@H](O)C[C@H](O)/C=C/c1c(-c2ccc(F)cc2)nc(C)c(C#N)c1C(C)C (relative stereo) [Example 139, Methyl erythro-(E)-7-[5-cyano-2-(4-fluorophenyl)-4-isopropyl-6-methyl-pyrid-3-yl]-3,5-dihydroxy-hept-6-enoate] | 20
6 | COC(=O)C[C@H](O)C[C@H](O)/C=C/c1c(C(C)C)nc(C(C)C)c(COc2ccccc2)c1-c1ccc(F)cc1 (relative stereo) [Example 89, Methyl erythro-(E)-7-[2,6-diisopropyl-4-(4-fluorophenyl)-5-phenoxymethyl-pyrid-3-yl]-3,5-dihydroxy-hept-6-enoate] | 10
7 | COC(=O)C[C@H](O)C[C@H](O)/C=C/c1c(C(C)C)nc(C(C)C)c(CSCc2ccccc2)c1-c1ccc(F)cc1 (relative stereo) [Example 107, Methyl erythro-(E)-7-[2,6-diisopropyl-4-[4-fluorophenyl)-5-benzylthio-methyl-pyrid-3-yl]-3,5-dihydroxy-hept-6-enoate] | 3
8 | COC(=O)C[C@H](O)C[C@H](O)/C=C/c1c(C(C)C)nc(C(C)C)c(COC(C)=O)c1-c1ccc(F)cc1 (relative stereo) [Example 72, methyl erythro-(E)-7-[3-acetoxymethyl-2,6-diisopropyl-4-(4-fluorophenyl)-pyrid-5-yl]-3,5-dihydroxy-hept-6-enoate] | 17
9 | COC(=O)C[C@H](O)C[C@H](O)/C=C/c1c(C(C)C)nc(C(C)C)c(CN2CCOCC2)c1-c1ccc(F)cc1 (relative stereo) [Example 105, Methyl erythro-(E)-7-[2,6-diisopropyl-4-(4-fluorophenyl)-5-morpholinomethyl-pyrid-3-yl]-3,5-dihydroxy-hept-6-enoate] | 4
10 | CCOC(=O)c1c(C(C)C)nc(C(C)C)c(/C=C/[C@@H](O)C[C@@H](O)CC(=O)OC)c1-c1ccc(F)cc1 (relative stereo) [Example 100, Methyl erythro-(E)-7-[2,6-diisopropyl-4-(4-fluorophenyl)-5-carboxyethyl-pyrid-3-y]-3,5-dihydroxy-hept-6-enoate] | 30

System: serum cholesterol
Assay: subchronic action on the blood cholesterol values of dogs in feeding experiments
Assay type: in vivo
Conditions: 8 mg/kg p.o. daily for 2 weeks; beagle dogs; colestyramine 4 g/100 g of feed throughout; vs values before administration
Description: The subchronic action of the compounds according to the invention on the blood cholesterol values of dogs was tested in feeding experiments of several weeks duration. For this, the substance to be investigated was given p.o. once daily in a capsule to healthy beagle dogs together with the feed over a period of time lasting several weeks. Colestyramine (4 g/100 g of feed) as the […] sequestrant was additionally admixed in the feed during the entire experimental period, i.e. before, during and after the administration period of the substances to be investigated. Venous blood was taken from the dogs twice weekly and the serum cholesterol was determined enzymatically using a commercial test kit. The serum cholesterol values during the administration period were compared with the serum cholesterol values before the administration period (controls).

Row | Structure (SMILES) | lowering of the serum cholesterol
11 | COC(=O)C[C@H](O)C[C@H](O)/C=C/c1c(C(C)C)nc(C(C)C)c(COCc2ccccc2)c1-c1ccc(F)cc1 (relative stereo) [Example 17, Methyl erythro-(E)-7-[3-benzyloxymethyl-2,6-diisopropyl-4-(4-fluorophenyl)-pyrid-5-yl]-3,5-dihydroxy-hept-6-enoate] | about 66%
